What all share (test): kinome screen (33PanQinase)
Common to all, as to type: biochemical

The target of one assay is T1, MINK1 (Homo sapiens, UniProt Q8N4C8).
T1 construct: purchased Reaction Biology Europe GmbH (formerly ProQinase)
How it is done: (§1) The Kinome Screening was performed by Reaction Biology Europe GmbH (http://reactionbiology.com; Freiburg i. Br., Germany).

The next assay addresses T2, MAPKAPK3 (Homo sapiens, UniProt Q16644).
T2 construct: purchased Reaction Biology Europe GmbH (formerly ProQinase)
How it is done: as §1

A further assay concerns the target T3, AKT1 (Homo sapiens, UniProt P31749).
T3 construct: purchased Reaction Biology Europe GmbH (formerly ProQinase)
How it is done: as §1

For another assay, the target named is T4, IKKε (Homo sapiens, UniProt Q14164).
T4 construct: purchased Reaction Biology Europe GmbH (formerly ProQinase)
T4 sequence (Q14164 1-716): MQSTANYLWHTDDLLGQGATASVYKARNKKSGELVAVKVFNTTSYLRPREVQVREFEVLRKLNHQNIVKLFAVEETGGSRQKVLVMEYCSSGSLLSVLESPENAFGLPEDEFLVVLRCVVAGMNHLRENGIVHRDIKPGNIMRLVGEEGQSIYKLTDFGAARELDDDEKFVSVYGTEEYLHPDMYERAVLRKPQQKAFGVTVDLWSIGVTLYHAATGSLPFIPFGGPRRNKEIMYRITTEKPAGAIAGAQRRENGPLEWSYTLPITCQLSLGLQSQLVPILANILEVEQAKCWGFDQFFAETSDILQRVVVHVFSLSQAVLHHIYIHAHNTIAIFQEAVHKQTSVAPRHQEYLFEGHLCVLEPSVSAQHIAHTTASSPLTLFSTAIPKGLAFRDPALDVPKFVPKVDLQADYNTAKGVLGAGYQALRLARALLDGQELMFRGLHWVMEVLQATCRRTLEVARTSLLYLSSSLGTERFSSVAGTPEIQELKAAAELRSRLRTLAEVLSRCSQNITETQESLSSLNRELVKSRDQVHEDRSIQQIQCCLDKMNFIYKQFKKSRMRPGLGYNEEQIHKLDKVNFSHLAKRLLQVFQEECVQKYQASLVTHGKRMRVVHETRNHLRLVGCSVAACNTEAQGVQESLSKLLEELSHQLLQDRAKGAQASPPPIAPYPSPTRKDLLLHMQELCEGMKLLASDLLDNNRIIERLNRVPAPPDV
How it is done:
as §1

In the next assay the target is T5, DYRK1B (Homo sapiens, UniProt Q9Y463).
T5 construct: purchased Reaction Biology Europe GmbH (formerly ProQinase)
T5 sequence (Q9Y463 whole entry): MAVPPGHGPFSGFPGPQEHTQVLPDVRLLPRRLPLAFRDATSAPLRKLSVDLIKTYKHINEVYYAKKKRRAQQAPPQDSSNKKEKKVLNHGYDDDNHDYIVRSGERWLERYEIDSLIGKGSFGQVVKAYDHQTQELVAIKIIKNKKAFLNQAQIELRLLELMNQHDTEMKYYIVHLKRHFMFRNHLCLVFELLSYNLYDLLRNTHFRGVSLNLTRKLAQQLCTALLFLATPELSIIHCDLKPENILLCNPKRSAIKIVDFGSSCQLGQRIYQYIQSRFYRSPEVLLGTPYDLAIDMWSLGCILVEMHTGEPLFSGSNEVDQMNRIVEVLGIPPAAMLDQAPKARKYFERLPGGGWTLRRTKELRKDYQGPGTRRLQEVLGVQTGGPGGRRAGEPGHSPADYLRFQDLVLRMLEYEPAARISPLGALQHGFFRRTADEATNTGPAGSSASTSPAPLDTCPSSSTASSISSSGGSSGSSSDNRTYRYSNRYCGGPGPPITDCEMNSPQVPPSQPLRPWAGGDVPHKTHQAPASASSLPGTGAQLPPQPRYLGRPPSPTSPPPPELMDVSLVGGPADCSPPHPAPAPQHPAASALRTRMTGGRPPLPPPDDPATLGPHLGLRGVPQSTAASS
On the procedure:
as §1

A further assay addresses T6, AXL (Homo sapiens, UniProt P30530).
T6 construct: purchased Reaction Biology Europe GmbH (formerly ProQinase)
T6 sequence (P30530 26-894): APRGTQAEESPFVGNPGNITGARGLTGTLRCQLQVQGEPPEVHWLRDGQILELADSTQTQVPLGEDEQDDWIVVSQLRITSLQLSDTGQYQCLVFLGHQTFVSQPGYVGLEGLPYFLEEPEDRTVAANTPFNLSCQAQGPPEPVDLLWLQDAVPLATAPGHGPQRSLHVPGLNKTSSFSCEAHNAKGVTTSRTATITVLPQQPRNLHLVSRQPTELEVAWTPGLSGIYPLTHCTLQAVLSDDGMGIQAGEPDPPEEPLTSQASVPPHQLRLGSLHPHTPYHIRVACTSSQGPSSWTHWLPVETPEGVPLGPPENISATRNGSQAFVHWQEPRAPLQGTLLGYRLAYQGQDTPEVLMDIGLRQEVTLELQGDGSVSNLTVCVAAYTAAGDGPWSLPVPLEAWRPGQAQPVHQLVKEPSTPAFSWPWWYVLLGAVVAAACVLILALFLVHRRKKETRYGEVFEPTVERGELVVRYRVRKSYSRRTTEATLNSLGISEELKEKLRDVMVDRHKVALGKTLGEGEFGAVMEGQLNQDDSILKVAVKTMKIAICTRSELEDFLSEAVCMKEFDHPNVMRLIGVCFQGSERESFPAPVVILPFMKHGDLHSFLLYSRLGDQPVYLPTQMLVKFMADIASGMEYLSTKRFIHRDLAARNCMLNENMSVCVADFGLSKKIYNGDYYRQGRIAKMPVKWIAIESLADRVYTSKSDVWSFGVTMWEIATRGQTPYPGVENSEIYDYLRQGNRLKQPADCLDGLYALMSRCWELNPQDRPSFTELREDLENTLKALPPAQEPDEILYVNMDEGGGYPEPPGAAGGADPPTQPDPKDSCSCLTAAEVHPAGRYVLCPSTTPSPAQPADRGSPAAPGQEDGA
On the procedure: as §1

The next assay deals with T7, GRK3 (Homo sapiens, UniProt P35626).
T7 construct: purchased Reaction Biology Europe GmbH (formerly ProQinase)
T7 sequence (P35626 1-688): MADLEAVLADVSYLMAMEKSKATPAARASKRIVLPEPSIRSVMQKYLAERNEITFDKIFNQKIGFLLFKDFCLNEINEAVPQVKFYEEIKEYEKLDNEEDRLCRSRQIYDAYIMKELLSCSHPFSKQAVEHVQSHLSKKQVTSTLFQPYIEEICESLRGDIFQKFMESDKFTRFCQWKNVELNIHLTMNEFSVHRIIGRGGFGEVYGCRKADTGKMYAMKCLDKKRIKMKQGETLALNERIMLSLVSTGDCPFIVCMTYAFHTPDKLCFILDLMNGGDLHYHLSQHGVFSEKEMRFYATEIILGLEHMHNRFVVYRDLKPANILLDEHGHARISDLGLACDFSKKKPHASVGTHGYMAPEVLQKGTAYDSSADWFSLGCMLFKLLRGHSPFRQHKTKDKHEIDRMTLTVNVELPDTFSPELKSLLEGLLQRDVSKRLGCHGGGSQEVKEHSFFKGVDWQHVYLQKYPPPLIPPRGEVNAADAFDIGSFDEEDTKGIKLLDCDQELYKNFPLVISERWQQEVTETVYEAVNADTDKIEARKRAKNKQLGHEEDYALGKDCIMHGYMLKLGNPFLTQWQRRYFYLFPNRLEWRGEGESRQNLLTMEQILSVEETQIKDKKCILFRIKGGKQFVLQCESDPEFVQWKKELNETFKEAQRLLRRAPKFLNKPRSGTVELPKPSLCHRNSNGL
On the procedure:
as §1

The target in a further assay is T8, MST4 (Homo sapiens, UniProt Q9P289).
T8 construct: purchased Reaction Biology Europe GmbH (formerly ProQinase)
T8 sequence (Q9P289 whole entry): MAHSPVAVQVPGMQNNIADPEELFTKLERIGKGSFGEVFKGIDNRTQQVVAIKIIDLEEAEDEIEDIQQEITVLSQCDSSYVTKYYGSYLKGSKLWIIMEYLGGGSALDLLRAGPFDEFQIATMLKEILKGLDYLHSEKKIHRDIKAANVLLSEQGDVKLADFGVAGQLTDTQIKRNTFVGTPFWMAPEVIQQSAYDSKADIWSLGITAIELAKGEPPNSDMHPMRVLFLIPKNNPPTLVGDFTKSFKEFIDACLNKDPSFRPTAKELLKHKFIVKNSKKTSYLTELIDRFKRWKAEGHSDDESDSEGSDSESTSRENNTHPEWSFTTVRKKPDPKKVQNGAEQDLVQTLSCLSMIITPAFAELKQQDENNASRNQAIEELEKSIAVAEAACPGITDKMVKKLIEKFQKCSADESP
How it is done: as §1

The structures appear in SMILES notation.

T3 sequence (P31749 whole entry): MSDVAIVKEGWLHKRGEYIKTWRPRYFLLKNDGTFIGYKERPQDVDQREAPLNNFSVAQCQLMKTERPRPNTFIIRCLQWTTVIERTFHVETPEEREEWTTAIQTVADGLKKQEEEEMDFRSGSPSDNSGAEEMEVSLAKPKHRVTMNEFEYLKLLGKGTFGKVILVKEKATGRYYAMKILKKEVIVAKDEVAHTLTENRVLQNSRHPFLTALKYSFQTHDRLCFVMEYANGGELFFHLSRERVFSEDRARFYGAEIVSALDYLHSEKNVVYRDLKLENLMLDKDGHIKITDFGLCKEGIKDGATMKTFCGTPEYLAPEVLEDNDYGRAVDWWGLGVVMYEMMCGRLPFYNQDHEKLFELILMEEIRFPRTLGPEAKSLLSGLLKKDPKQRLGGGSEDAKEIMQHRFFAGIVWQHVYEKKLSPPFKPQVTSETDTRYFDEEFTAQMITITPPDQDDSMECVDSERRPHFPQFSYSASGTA
T2 sequence (Q16644 whole entry): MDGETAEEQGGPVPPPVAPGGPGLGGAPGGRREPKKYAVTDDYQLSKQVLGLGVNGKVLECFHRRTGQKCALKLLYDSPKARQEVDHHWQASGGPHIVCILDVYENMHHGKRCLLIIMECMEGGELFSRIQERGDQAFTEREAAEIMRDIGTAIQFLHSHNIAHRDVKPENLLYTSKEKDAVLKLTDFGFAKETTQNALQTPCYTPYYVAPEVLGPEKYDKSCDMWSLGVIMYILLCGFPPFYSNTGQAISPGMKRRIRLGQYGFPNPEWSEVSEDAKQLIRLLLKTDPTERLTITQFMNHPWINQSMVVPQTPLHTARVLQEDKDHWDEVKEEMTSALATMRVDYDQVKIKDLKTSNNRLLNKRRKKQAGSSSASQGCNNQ
T1 sequence (Q8N4C8 whole entry): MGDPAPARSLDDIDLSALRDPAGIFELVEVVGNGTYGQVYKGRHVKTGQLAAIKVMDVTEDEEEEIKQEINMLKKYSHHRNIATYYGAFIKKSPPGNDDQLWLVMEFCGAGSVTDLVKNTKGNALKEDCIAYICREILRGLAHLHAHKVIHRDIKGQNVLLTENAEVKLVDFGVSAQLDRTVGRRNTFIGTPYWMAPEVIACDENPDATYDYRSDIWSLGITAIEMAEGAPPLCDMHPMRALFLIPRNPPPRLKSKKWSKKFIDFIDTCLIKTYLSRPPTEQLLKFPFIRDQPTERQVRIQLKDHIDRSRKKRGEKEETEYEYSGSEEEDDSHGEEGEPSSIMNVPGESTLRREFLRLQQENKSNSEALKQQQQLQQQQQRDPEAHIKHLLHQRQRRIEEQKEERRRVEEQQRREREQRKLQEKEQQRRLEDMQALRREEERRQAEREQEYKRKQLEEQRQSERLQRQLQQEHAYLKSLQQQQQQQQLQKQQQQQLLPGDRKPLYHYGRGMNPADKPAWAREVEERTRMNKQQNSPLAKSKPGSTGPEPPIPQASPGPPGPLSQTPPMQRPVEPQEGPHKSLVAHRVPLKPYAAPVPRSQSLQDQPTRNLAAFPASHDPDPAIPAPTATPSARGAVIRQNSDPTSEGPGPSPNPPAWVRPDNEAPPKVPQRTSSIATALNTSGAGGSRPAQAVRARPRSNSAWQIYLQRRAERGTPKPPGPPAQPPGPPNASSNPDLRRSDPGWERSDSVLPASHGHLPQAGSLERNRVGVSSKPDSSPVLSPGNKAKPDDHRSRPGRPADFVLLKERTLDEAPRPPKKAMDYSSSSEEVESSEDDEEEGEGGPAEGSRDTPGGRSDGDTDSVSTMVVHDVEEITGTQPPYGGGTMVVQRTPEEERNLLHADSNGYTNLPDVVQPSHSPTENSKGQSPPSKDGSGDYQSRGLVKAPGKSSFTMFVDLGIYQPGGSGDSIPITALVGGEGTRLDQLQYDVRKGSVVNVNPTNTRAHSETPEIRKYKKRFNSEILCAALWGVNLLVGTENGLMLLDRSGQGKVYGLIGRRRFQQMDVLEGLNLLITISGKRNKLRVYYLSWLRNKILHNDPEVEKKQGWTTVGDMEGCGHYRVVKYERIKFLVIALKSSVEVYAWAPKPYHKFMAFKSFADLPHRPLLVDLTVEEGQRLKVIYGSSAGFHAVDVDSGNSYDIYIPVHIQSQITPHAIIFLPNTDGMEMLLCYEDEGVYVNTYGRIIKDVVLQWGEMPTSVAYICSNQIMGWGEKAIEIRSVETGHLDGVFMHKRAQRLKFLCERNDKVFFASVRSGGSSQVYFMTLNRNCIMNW

Turning to `COc1ccnc2[nH]cc(-c3cc(N)nc(N)c3)c12` [meriolin 16], the residual kinase activity on MINK1 (0.03 µM) is listed as 75 % of control; on MINK1 (0.3 µM), 20 % of control; at MAPKAPK3 (0.03 µM), 99 % of control; on MAPKAPK3 (0.3 µM), 87 % of control; on AKT1 (0.03 µM), 96 % of control; on AKT1 (0.3 µM) it was 70 % of control. The residual kinase activity at IKKε (0.03 µM) is reported as 94 % of control; at IKKε (0.3 µM), 61 % of control; on DYRK1B (0.03 µM), 8 % of control; on DYRK1B (0.3 µM), 0 % of control; on AXL (0.03 µM), 101 % of control; at AXL (0.3 µM), 75 % of control. Moreover, the residual kinase activity is 111 % of control at GRK3 (0.03 µM), 107 % of control on GRK3 (0.3 µM), 78 % of control on MST4 (0.03 µM) and 81 % of control at MST4 (0.3 µM).
`c1ccc(CNc2cc(-c3c[nH]c4ncccc34)ccn2)cc1` [meriolin 36]: the residual kinase activity is 2 % of control at MINK1 (0.3 µM); 0 % of control on MINK1 (3 µM); 90 % of control at MAPKAPK3 (3 µM); 89 % of control at AKT1 (0.3 µM); 41 % of control at AKT1 (3 µM); 40 % of control at IKKε (0.3 µM). The residual kinase activity at IKKε (3 µM) was 6 % of control; at DYRK1B (0.3 µM), 7 % of control; at DYRK1B (3 µM), 0 % of control; at AXL (0.3 µM), 75 % of control; at AXL (3 µM) it was 28 % of control; on GRK3 (0.3 µM), 98 % of control. The residual kinase activity at GRK3 (3 µM) was 74 % of control; on MST4 (0.3 µM), 52 % of control; at MST4 (3 µM) it was 12 % of control.

Values taken from publication PMC11167047 (Cell Death Discovery, 2024).
